From patent US11939314B2, “Quinolin-2-one derivatives” (MERCK PATENT GMBH, priority 2016, dated 2024)
Structures can show the parent of a compound that is named as a salt.

How the values were obtained:
[1] = target: T1, c-Kit(V654A) (Homo sapiens, UniProt P10721, V654A); assay: c-Kit(V654A) assay; format: biochemical; conditions: recombinant human c-Kit aa 544-end, 200 μM ATP, 1.4E-06 means 1.4×10^−6, read-out: Inhibition (IC50) of c-KIT (V654A)
T1 construct: amino acids 544-end containing the V654A mutation; GST (N)
T1 sequence (P10721 544-976 V654A): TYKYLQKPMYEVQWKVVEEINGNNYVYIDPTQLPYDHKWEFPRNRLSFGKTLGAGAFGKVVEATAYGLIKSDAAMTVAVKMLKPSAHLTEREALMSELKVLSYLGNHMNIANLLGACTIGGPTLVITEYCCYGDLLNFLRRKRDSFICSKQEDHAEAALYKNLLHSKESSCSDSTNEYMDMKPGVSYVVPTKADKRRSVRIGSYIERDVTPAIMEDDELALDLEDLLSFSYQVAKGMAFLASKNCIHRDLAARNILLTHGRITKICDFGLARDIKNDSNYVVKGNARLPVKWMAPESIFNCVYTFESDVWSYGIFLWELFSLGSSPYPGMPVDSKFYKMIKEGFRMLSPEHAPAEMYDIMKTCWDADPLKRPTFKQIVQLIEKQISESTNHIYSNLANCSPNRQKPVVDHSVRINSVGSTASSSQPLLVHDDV
Summary of the method: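 Radiometric filter-binding read-out: substrate 33P incorporation counted by scintillation after P30 filtermat washes in 75 mM phosphoric acid and methanol. Enzyme: N-GST recombinant human c-Kit aa 544-end carrying V654A.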

[2] = target: T2, PDGFRalpha(V561D) (Homo sapiens, UniProt P16234, V561D); assay: PDGFRalpha(V561D) assay; format: biochemical; conditions: recombinant human PDGFRalpha aa 550-end, 200 μM ATP, 1.4E-06 means 1.4×10^−6, read-out: Inhibition (IC50) of PDGFRα (V561D)
T2 construct: recombinant human PDGFRalpha, amino acids 550end containing the V561 D mutation; 6His (N)
T2 sequence (P16234 550-1089 V561D): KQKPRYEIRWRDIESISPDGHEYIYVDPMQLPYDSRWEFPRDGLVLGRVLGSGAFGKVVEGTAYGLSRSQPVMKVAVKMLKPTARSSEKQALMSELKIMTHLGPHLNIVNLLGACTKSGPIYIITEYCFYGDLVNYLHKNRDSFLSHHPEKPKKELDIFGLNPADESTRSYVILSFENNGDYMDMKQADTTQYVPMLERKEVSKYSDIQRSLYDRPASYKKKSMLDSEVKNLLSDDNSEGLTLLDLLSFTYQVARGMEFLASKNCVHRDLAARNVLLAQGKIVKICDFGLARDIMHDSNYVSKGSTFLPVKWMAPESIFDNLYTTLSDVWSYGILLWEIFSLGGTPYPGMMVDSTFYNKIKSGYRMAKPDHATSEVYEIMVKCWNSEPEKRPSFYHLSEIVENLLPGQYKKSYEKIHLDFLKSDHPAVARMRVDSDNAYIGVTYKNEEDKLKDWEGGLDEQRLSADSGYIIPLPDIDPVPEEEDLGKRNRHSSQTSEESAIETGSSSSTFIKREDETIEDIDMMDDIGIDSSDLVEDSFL
Summary of the method: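 Radiometric filter-binding assay: substrate phosphorylation by recombinant N-His-tagged human PDGFRα 550-end V561D was quenched with 3% phosphoric acid after 40 min at room temperature, then counted.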

| IC50 [1] [µM] | IC50 [2] [µM] | Compound |
| --- | --- | --- |
| 0.017 | 0.0014 | O=C(c1ccc(-n2cc(-c3cc4cc(F)ccc4[nH]c3=O)nn2)cc1)N1CCC(F)(F)C1 [A267, 3-{1-[4-(3,3-difluoro-pyrrolidine-1-carbonyl)-phenyl]-1H-[1,2,3]triazol-4-yl}-6-fluoro-1H-quinolin-2-one] |
| 0.016 | 0.00067 | O=C(c1ccc(-n2cc(-c3cc4cc(Cl)ccc4[nH]c3=O)nn2)cc1)N1CCC(F)(F)C1 [A268, 6-chloro-3-{1-[4-(3,3-difluoro-pyrrolidine-1-carbonyl)-phenyl]-1H-[1,2,3]triazol-4-yl}-1H-quinolin-2-one] |
| 0.031 | 0.0015 | O=C(c1ccc(-n2cc(-c3cc4cc(F)ccc4[nH]c3=O)nn2)cc1)N1CC[C@@H](F)C1 [A269, 6-fluoro-3-{1-[4-((R)-3-fluoro-pyrrolidine-1-carbonyl)-phenyl]-1H-[1,2,3]triazol-4-yl}-1H-quinolin-2-one] |
| 0.026 | 0.0002 | O=C(c1ccc(-n2cc(-c3cc4cc(Cl)ccc4[nH]c3=O)nn2)cc1)N1CC[C@@H](F)C1 [A270, 6-chloro-3-{1-[4-((R)-3-fluoro-pyrrolidine-1-carbonyl)-phenyl]-1H-[1,2,3]triazol-4-yl}-1H-quinolin-2-one] |
| 0.05 | 0.00051 | CO[C@@H]1CN(C(=O)c2ccc(-n3cc(-c4cc5cc(Cl)ccc5[nH]c4=O)nn3)cc2)C[C@H]1OC [A271, 6-chloro-3-{1-[4-((3R,4R)-3,4-dimethoxy-pyrrolidine-1-carbonyl)-phenyl]-1H-[1,2,3]triazol-4-yl}-1H-quinolin-2-one] |
| 0.048 | 0.00089 | CO[C@H]1CN(C(=O)c2ccc(-n3cc(-c4cc5cc(Cl)ccc5[nH]c4=O)nn3)cc2)C[C@@H]1OC [A272, 6-chloro-3-{1-[4-((3S,4S)-3,4-dimethoxy-pyrrolidine-1-carbonyl)-phenyl]-1H-[1,2,3]triazol-4-yl}-1H-quinolin-2-one] |
| 0.04 | 0.0041 | O=C(c1ccc(-n2cc(-c3cc4cc(F)ccc4[nH]c3=O)nn2)cc1)N1CCCC1 [A273, 6-fluoro-3-{1-[4-(pyrrolidine-1-carbonyl)-phenyl]-1H-[1,2,3]triazol-4-yl}-1H-quinolin-2-one] |
| 0.061 | 0.0033 | O=C(c1ccc(-n2cc(-c3cc4cc(F)ccc4[nH]c3=O)nn2)cc1)N1C[C@@H](O)CO1 [A274, 6-fluoro-3-{1-[4-((R)-4-hydroxy-isoxazolidine-2-carbonyl)-phenyl]-1H-[1,2,3]triazol-4-yl}-1H-quinolin-2-one] |
| 0.045 | 0.00021 | O=C(c1ccc(-n2cc(-c3cc4cc(Cl)ccc4[nH]c3=O)nn2)cc1)N1C[C@@H](O)CO1 [A275, 6-chloro-3-{1-[4-((R)-4-hydroxy-isoxazolidine-2-carbonyl)-phenyl]-1H-[1,2,3]triazol-4-yl}-1H-quinolin-2-one] |
| 0.054 | 0.0014 | O=C(c1ccc(-n2cc(-c3cc4cc(F)ccc4[nH]c3=O)nn2)cc1)N1C[C@H](O)CO1 [A276, 6-fluoro-3-{1-[4-((S)-4-hydroxy-isoxazolidine-2-carbonyl)-phenyl]-1H-[1,2,3]triazol-4-yl}-1H-quinolin-2-one] |
| 0.03 | 0.0026 | O=C(c1ccc(-n2cc(-c3cc4cc(Cl)ccc4[nH]c3=O)nn2)cc1)N1C[C@H](O)CO1 [A277, 6-chloro-3-{1-[4-((S)-4-hydroxy-isoxazolidine-2-carbonyl)-phenyl]-1H-[1,2,3]triazol-4-yl}-1H-quinolin-2-one] |
| 0.017 | 0.0015 | O=C(c1ccc(-n2cc(-c3cc4cc(F)ccc4[nH]c3=O)nn2)cc1)N1CCC[C@@H]1CN1CCCC1 [A278, 6-fluoro-3-{1-[4-((R)-2-pyrrolidin-1-ylmethyl-pyrrolidine-1-carbonyl)-phenyl]-1H-[1,2,3]triazol-4-yl}-1H-quinolin-2-one] |
| 0.014 | 0.00072 | O=C(c1ccc(-n2cc(-c3cc4cc(F)ccc4[nH]c3=O)nn2)cc1)N1CCC[C@H]1CN1CCCC1 [A279, 6-fluoro-3-{1-[4-((S)-2-pyrrolidin-1-ylmethyl-pyrrolidine-1-carbonyl)-phenyl]-1H-[1,2,3]triazol-4-yl}-1H-quinolin-2-one] |
| 0.077 | 0.053 | O=C(c1ccc(-n2cc(-c3cc4cc(F)ccc4[nH]c3=O)nn2)cc1)N1CCC1 [A280, 3-{1-[4-(azetidine-1-carbonyl)-phenyl]-1H-[1,2,3]triazol-4-yl}-6-fluoro-1H-quinolin-2-one] |
| 0.057 | 0.01 | CN1CCN(C(=O)C2CCCN2C(=O)c2ccc(-n3cc(-c4cc5cc(F)ccc5[nH]c4=O)nn3)cc2)CC1 (stereo not shown) [A281, 6-fluoro-3-(1-{4-[2-(4-methyl-piperazine-1-carbonyl)-pyrrolidine-1-carbonyl]-phenyl}-1H-[1,2,3]triazol-4-yl)-1H-quinolin-2-one] |
| 0.038 | 0.014 | CN1CCN(C(=O)c2ccc(-n3cc(-c4cc5cc(F)ccc5[nH]c4=O)cn3)cc2)CC1 [A296, 6-fluoro-3-{1-[4-(4-methyl-piperazine-1-carbonyl)-phenyl]-1H-pyrazol-4-yl}-1H-quinolin-2-one] |
| 0.066 | 0.24 | CO[C@H]1CCN(C(=O)c2ccc(-n3cc(-c4cc5cc(F)ccc5[nH]c4=O)cn3)cc2)C1 [A297, 6-fluoro-3-{1-[4-((S)-3-methoxy-pyrrolidine-1-carbonyl)-phenyl]-1H-pyrazol-4-yl}-1H-quinolin-2-one] |
| 0.041 | 0.021 | CO[C@@H]1CCN(C(=O)c2ccc(-n3cc(-c4cc5cc(F)ccc5[nH]c4=O)cn3)cc2)C1 [A298, 6-fluoro-3-{1-[4-((R)-3-methoxy-pyrrolidine-1-carbonyl)-phenyl]-1H-pyrazol-4-yl}-1H-quinolin-2-one] |
| 0.058 | 0.023 | COCCO[C@H]1CCN(C(=O)c2ccc(-n3cc(-c4cc5cc(F)ccc5[nH]c4=O)cn3)cc2)C1 [A299, 6-fluoro-3-(1-{4-[(S)-3-(2-methoxy-ethoxy)-pyrrolidine-1-carbonyl]-phenyl}-1H-pyrazol-4-yl)-1H-quinolin-2-one] |
| 0.068 | 0.00076 | CO[C@@H]1CN(C(=O)c2ccc(-n3cc(-c4cc5cc(F)ccc5[nH]c4=O)cn3)cc2)C[C@H]1OC [A300, 3-{1-[4-((3R,4R)-3,4-dimethoxy-pyrrolidine-1-carbonyl)-phenyl]-1H-pyrazol-4-yl}-6-fluoro-1H-quinolin-2-one] |
| 0.043 | 0.001 | CO[C@@H]1C[C@@H](CO)N(C(=O)c2ccc(-n3cc(-c4cc5cc(F)ccc5[nH]c4=O)cn3)cc2)C1 [A301, 6-fluoro-3-{1-[4-((2S,4R)-2-hydroxymethyl-4-methoxy-pyrrolidine-1-carbonyl)-phenyl]-1H-pyrazol-4-yl}-1H-quinolin-2-one] |
| 0.031 | 0.0012 | CO[C@@H]1C[C@H](CO)N(C(=O)c2ccc(-n3cc(-c4cc5cc(F)ccc5[nH]c4=O)cn3)cc2)C1 [A302, 6-fluoro-3-{1-[4-((2R,4R)-2-hydroxymethyl-4-methoxy-pyrrolidine-1-carbonyl)-phenyl]-1H-pyrazol-4-yl}-1H-quinolin-2-one] |
| 0.037 | 0.006 | CO[C@H]1CN(C(=O)c2ccc(-n3cc(-c4cc5cc(F)ccc5[nH]c4=O)cn3)cc2)C[C@@H]1OC [A303, 3-{1-[4-((3S,4S)-3,4-dimethoxy-pyrrolidine-1-carbonyl)-phenyl]-1H-pyrazol-4-yl}-6-fluoro-1H-quinolin-2-one] |
| 0.017 | 0.24 | O=C(c1ccc(-n2cc(-c3cc4cc(F)c(F)cc4[nH]c3=O)nn2)cc1)N1C[C@H]2CNC[C@H]2C1 [A307, 6,7-difluoro-3-{1-[4-((cis)-hexahydro-pyrrolo[3,4-c]pyrrole-2-carbonyl)-phenyl]-1H-[1,2,3]triazol-4-yl}-1H-quinolin-2-one] |
| 0.01 | 0.0974 | O=C(c1ccc(-n2cc(-c3cc4cc(F)ccc4[nH]c3=O)nn2)cc1)N1C[C@H]2CNC[C@H]2C1 [A308, 6-fluoro-3-{1-[4-((cis)-hexahydro-pyrrolo[3,4-c]pyrrole-2-carbonyl)-phenyl]-1H-[1,2,3]triazol-4-yl}-1H-quinolin-2-one] |
| 0.063 | 0.13 | N[C@@H]1CCCN(C(=O)c2ccc(-n3cc(-c4cc5cc(F)c(F)cc5[nH]c4=O)nn3)cc2)C1 [A309, 3-{1-[4-((R)-3-amino-piperidine-1-carbonyl)-phenyl]-1H-[1,2,3]triazol-4-yl}-6,7-difluoro-1H-quinolin-2-one hydrochloride] |
| 0.044 | 0.085 | N[C@H]1CCCN(C(=O)c2ccc(-n3cc(-c4cc5cc(F)c(F)cc5[nH]c4=O)nn3)cc2)C1 [A310, 3-{1-[4-((S)-3-amino-piperidine-1-carbonyl)-phenyl]-1H-[1,2,3]triazol-4-yl}-6,7-difluoro-1H-quinolin-2-one hydrochloride] |
| 0.021 | 0.31 | CN[C@@H]1CCN(C(=O)c2ccc(-n3cc(-c4cc5cc(F)ccc5[nH]c4=O)nn3)cc2)C1 [A311, 6-Fluoro-3-{1-[4-((R)-3-methylamino-pyrrolidine-1-carbonyl)-phenyl]-1H-[1,2,3]triazol-4-yl}-1H-quinolin-2-one hydrochloride] |
| 0.061 | 0.29 | CN[C@H]1CCN(C(=O)c2ccc(-n3cc(-c4cc5cc(F)ccc5[nH]c4=O)nn3)cc2)C1 [A312, 6-fluoro-3-{1-[4-((S)-3-methylamino-pyrrolidine-1-carbonyl)-phenyl]-1H-[1,2,3]triazol-4-yl}-1H-quinolin-2-one hydrochloride] |
